Tested on: human skin
Test: Dermal exposure test
Type: in vivo
Source text: The objective of this study was to evaluate the dermal irritancy and corrosiveness of the composition of Example 2, following a single application to human skin. To assess the safety upon spillage on human skin, a few drops of the synthetic acid according to a preferred embodiment of the present invention and a control composition (MSA—70%) were applied to the skin on the back of the hand of a test individual. The hands were not covered and remained exposed to the compositions for a period of up to one hour. The exposed skin was subsequently washed with soap and visual assessment of the exposed area was done 24 hours after the start of the exposure.

Q: Which “Dermal exposure, skin observation” value (24 hrs from exposure, after washing with soap) does the source give for `CS(=O)(=O)O` [MSA (70%), Methanesulfonic acid] here?
A: scab formation

Q: And the “Dermal exposure, skin observation” value (back of hand, 0 hrs from exposure)?
A: immediate burning

Q: And the “Dermal exposure, skin observation” value (back of hand, 1 hrs from exposure)?
A: red skin irritation with large blisters

Q: And the “Dermal exposure, skin observation” value (back of hand, ½ hrs from exposure)?
A: small blisters
